Data: US20120101147A1, “INHIBITION OF HDAC2 TO PROMOTE MEMORY” (The General Hospital Corporation d/b/a Massachusetts …, priority 2008, published 2012)
“Also recorded” adds a separate entry of the source. Each block holds one compound with its values, some of them ahead of it.

What was measured:
[1] = target: T1, HDAC6 (Homo sapiens, UniProt Q9UBN7); conditions: cited from earlier work
T1 sequence (Q9UBN7 1-1215): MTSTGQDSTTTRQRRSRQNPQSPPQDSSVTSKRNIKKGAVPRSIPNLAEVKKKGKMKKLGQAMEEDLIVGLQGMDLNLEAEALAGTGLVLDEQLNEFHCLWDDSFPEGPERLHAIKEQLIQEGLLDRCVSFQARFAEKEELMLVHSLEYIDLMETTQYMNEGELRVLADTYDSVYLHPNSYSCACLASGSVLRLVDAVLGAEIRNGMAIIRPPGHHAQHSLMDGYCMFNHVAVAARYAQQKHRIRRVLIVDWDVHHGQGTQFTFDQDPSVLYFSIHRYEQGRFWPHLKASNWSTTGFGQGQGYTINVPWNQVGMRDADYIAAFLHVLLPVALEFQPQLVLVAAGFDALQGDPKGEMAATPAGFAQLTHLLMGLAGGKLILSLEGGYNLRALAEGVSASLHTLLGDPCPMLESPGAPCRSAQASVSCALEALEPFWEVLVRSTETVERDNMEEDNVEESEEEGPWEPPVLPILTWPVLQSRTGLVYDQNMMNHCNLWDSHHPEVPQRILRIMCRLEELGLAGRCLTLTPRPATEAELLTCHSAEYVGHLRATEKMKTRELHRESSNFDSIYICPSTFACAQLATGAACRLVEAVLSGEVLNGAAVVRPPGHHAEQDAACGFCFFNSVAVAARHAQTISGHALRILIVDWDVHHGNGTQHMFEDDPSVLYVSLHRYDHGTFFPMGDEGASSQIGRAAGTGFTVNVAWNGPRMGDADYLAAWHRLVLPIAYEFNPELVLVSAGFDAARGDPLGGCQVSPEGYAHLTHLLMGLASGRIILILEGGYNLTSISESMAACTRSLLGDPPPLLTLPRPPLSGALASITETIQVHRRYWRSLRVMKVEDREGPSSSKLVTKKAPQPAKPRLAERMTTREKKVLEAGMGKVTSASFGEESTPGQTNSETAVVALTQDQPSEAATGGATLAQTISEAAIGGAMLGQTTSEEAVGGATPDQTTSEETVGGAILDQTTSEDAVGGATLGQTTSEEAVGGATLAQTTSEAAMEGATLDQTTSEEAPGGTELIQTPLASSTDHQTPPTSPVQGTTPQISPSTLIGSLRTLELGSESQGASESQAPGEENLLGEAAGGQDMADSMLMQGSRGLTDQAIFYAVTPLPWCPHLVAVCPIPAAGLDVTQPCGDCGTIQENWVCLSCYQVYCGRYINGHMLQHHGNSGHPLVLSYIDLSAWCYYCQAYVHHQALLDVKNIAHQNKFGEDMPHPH

[2] = tested on: mice; experiment: Context-dependent fear conditioning memory test; format: in vivo, mouse
Procedure: Fear conditioning tests Context-dependent fear conditioning. Training consists of a 3 min exposure of mice to the conditioning box (context) followed by a foot shock (2 sec, 0.5/0.8/1.0 mA, constant current). The memory test was performed 24 hr later by re-exposing the mice for 3 min into the conditioning context. Freezing, defined as a lack of movement except for heart beat and respiration associated with a crouching posture, was recorded every 10 sec by two trained observers (one was unaware of the experimental conditions) during 3 min (a total of 18 sampling intervals). The number of observations indicating freezing obtained as a mean from both observers was expressed as a percentage of the total number of observations.
Chemical administration Suberoylanilide hydroxamic acid (SAHA) was synthesized as described previously in WO 93/07148 PTC/US92/08454. Sodium butyrate was purchased from Sigma (cat.B5887). SAHA and WT-161 were dissolved in DMSO as stock solutions and diluted in saline just before injection. Sodium butyrate was prepared in saline. Mice received intraperitoneal injection daily with either SAHA or saline for 10 days or 21 days.
C57/BL6 WT mice were injected with vehicle or BRD-6929 for 10 days. On day 11, mice were trained in contextual fear conditioning paradigm (Training consisted of a 3 min exposure of mice to the conditioning box (context, TSE) followed by a foot shock (2 sec, 0.8 mA, constant current). One hour after training, mice were injected with BRD-6929 or vehicle. On day 12, mice were returned to the training box and the freezing behavior were monitored and recorded.

[3] = tested on: c-fos; experiment: c-fos positive cells after fear conditioning training; format: in vivo, mouse; conditions: compared to saline treated group
Text: Studies described in the Examples below were also undertaken to determine which of the 11 histone deacetylases is responsible for the observed function and to identify selective HDAC inhibitors for enhancing memory. […] Remarkably, HDAC2 neuron specific knockout mice (loss of function) display enhanced learning. […] Thus it was unexpected that HDAC1/HDAC2 inhibitors would be useful for enhancing memory.

[4] = tested on: tetra-acetylated H4; experiment: Western blot of tetra-acetylated H4 in primary striatal cells; format: cell-based, mouse; conditions: relative to DMSO controls
Procedure: (§1) Four compounds were tested including CI-994 (BRD-3696) and SAHA. […] BRD-6929 and BRD-5298 treatment results in a 2-5 fold increase in both marks at 1 and 10 uM.

[5] = tested on: H2B acetylation; experiment: Immunofluorescence: H2B acetylation in primary neuronal cell cultures; format: cell-based, mouse; conditions: 1 and 10 uM; 6 h; primary neuronal cell cultures
Procedure: (§2) 1) Compounds were pin transferred from 384-well plates (Abgene) using a 185 nl pin tool using a no touch bottom protocol.
(§3) 1) Media was aspirated using a plate washer (Tecan) protocol that leaves ˜5 ul residual volume and without touching the bottom of plates); or alternatively, wells were gently aspirated to remove media with 12-channel aspirator wand.
(§4) 2) A multichannel pipet or use liquid handling system (e.g. Combi, standard tubing; slow speed) was used to add 75 ul formaldehyde (4% in PBS) and wells incubated 10 min at room temperature.
(§5) 3) Formaldehyde was aspirated and cells rinsed 3 times with 100 ul PBS;
(§6) 4) PBS was aspirated and 100 ul blocking/permeablization buffer (0.1% Triton-X100, 2% BSA, in PBS) added and wells incubate 1 hour at room temperature.
(§7) 5) Blocking buffer was aspirated and 50 ul primary antibody diluted 1:500 in blocking buffer was added and wells incubated overnight at 4 degrees.
(§8) 1) Primary antibody was aspirated and wells rinsed 3 times with 100 ul blocking buffer
(§9) 2) 50 ul of secondary antibody diluted 1:500 and with Hoeschst (1:1000 from 10 mg/mL (16 mM) stock) added and wells incubated 1.5 hours at room temperature covered in foil to prevent photobleaching.
(§10) 3) Wells were rinsed 3 times with 100 ul PBS, and a 100 uls of PBS added and the plates, sealed
(§11) 4) Plates were then read on Acumen/IX Micro

[6] = tested on: tetra-acetylated H2B; experiment: Western blot of tetra-acetylated H2B in primary striatal cells; format: cell-based, mouse; conditions: relative to DMSO controls
Procedure: as §1

[7] = tested on: primary neuronal cultures; experiment: Immunofluorescence: overall cell number in primary neuronal cultures; format: cell-based, mouse; conditions: 1 and 10 uM; 6 h; primary neuronal cell cultures
Procedure: as §2, §3, §4, §5, §6, §7, §8, §9, §10, §11

[8] = tested on: hippocampus; experiment: Long-term potentiation (LTP) in hippocampal slices of treated mice; format: in vivo, mouse; conditions: 25 mg/kg i.p. 10 days, one HFS 1×100 Hz
Procedure: FIG. 6 SAHA treatment facilitates LTP in WT but not HDAC2KO hippocampus. a-b. One-month-old HDAC2KO mice and their WT littermates were injected with SAHA (25 mg/kg, i.p.) or saline for 10 days. An additional injection was introduced 30 minutes before sacrifice. Long-term potentiation (LTP) was induced by one HFS stimulation (1×100 Hz, 1 s) of Schaffer collaterals. a. […] (**, p<0.005, two-way ANOVA).
Electrophysiological analysis. 3-6 months old HDAC2OE, HDAC2KO or their littermates were killed by cervical dislocation, and hippocampi were rapidly dissected in iced oxygenated artificial CSF (ACSF). Transverse hippocampal slices, 400 μm thick were placed in a chamber and continuously perfused with oxygenated ACSF. A bipolar stimulating electrodes (0.002-inch-diameter nichrome wire; A-M Systems) placed in the stratum radiatum was used to elicit action potentials in CA3 axons. An ACSF-filled glass microelectrode with a resistance between 0.5 and 3 MΩ was placed in the stratum radiatum region of CA1 and was used to record the field excitatory post-synaptic potentials (fEPSP). Data were acquired using HEKA EPC10 and analyzed by patchmaster (HEKA). […] Baseline responses were recorded for 20 min. fEPSP were evoked at the CA1 synapses by stimulating Schaffer collaterals at a low frequency (2 per min) to establish a stable baseline. […]

[9] = tested on: CA1 region of hippocampus; experiment: Golgi staining and synaptophysin immunostaining of hippocampal CA1; format: in vivo, mouse
Procedure: Memory test for mice with contextual fear conditioning training (foot shock 1.0 mA). HDAC2OE mice (SAHA group, n=12; saline group, n=12) and WT littermates (SAHA group, n=12; saline group, n=15) were treated with saline or SAHA (25 mg/kg, i.p.) for 10 days before memory test. b. CA1 region (pyramidal neuron layer; stratum radiatum (s.r.)) from WT and HDAC2OE mice received chronic SAHA treatment or saline treatment and were observed through immunostaining. Average optical signals for Ac-lysine were measured on pyramidal neuron layer; SVP signals were measured from s.r. c. Images of Golgi staining from CA1 region of hippocampus. For WT, naive, n=23; WT, SAHA, n=41; HDAC2OE, naïve, n=21; HDAC2OE, SAHA, n=32. Scale bar 10 μm. d. Memory test for mice with contextual fear conditioning training (foot shock 0.5 mA) after 10 day SAHA injection (25 mg/kg, i.p.). WT mice (SAHA, n=10; saline, n=10) and HDAC2 KO mice (SAHA, n=8; saline, n=8). e. CA1 region from HDAC2KO mice received chronic SAHA treatment or saline treatment and were observed through immunostaining. SVP-singles were quantified in the s.r. Saline, n=15; SAHA, n=22. Scale bar=50 μm. f. Images of Golgi staining of CA1 region of hippocampus from HDAC2KO mice. HDAC2KO, SAHA, n=24; HDAC2KO, naïve, n=27. *, p<0.05; **, p<0.005; ***,p<0.001, unpaired student t-test error bars indicate s.e.m.
Golgi impregnation Golgi-Cox-stained brains were cut to 200 μm thick cross-sections with vibratome and analyzed using a Zeiss 200 Axiovert microscope and Openlab software. The number of apical and basal spines on hippocampal CA1 pyramidal neurons was counted blind to the genotype. For each experimental group, a minimum of 10 cells per slice (animal number n=3) were analyzed. CA1 hippocampal neurons within the region −1.4 mm to −1.6 mm (relative to the bregma position) were included for the analysis.
Immunohistochemistry Immunohistochemical analysis was performed as described before (Guan, J. S., et al., Cell, 2005. 122(4): p. 619-31.). Antibodies were used in a 1:1000 concentration. […] Staining was quantified using LSMetal0 software (Zeiss).

[10] = HDAC2KO mice, chronic treatment

Compound: CCCC(=O)[O-].[Na+] [SB, sodium butyrate]
inhibition of HDAC6 activity in vitro [1]: does not inhibit

Compound: Nc1ccccc1NC(=O)c1ccc(CNC(=O)OCc2cccnc2)cc1 [MS-275]
associative learning in mice ([2]; mouse, in vivo): did not facilitate | number of c-fos positive cells after fear conditioning training [3]: lower number

overall cell number [7]: do not cause an increase or decrease
Compound: CN1CCN(CCNC(=O)c2ccc(C(=O)Nc3cc(-c4cccs4)ccc3N)cc2)CC1 [BRD-5298, N1-(2-amino-5-(thiophen-2-yl)phenyl)-N4-(2-(4-methylpiperazin-1-yl)ethyl)terephthalamide]
tetra-acetylated H4 [4]: significantly increased | H2B acetylation [5]: significant increase | tetra-acetylated H2B [6]: trend toward increasing

Compound: O=C(CCCCCCC(=O)Nc1ccccc1)NO [SAHA, suberoylanilide hydroxamic acid]
LTP ([8]; HDAC2 KO hippocampus): did not have a detectable effect; also recorded: No significant difference | LTP ([8]; WT hippocampus): modestly increased; also recorded: significant increase | freezing behavior ([2]; HDAC2KO mice, 25 mg/kg i.p. 10 days, foot shock 0.5 mA, n=8): 52.1±9.8% | freezing behavior ([2]; HDAC2OE mice, 25 mg/kg i.p. daily 10 days, foot shock 1.0 mA, n=12): 66.7±5.1% | freezing behavior ([2]; WT control mice, 25 mg/kg i.p. 10 days, foot shock 0.5 mA, n=10): 45.0±6.9% | freezing behavior ([2]; WT control mice, 25 mg/kg i.p. daily 10 days, foot shock 1.0 mA, n=12): 63.9±4.2% | dendritic spine density of CA1 neurons [9, 10]: not significantly affected | synaptophysin staining in the stratum radiatum [9, 10]: not significantly affected | decreased dendritic spine and synapses phenotype ([9]; HDAC2OE mice, chronic treatment 25 mg/kg i.p.): completely abrogated
